From patent publication US8241647B2, “Amphiphilic molecule, molecular assembly comprising the amphiphilic molecule, and use of the molecular assembly” (Waseda University, priority 2007, dated 2012)
Like-named read-outs stand apart in the source and are kept apart here.

What was measured:
[1] = Measurement of zeta potential of liposomes; type: physicochemical; details: 37°C
Method: Portions of the prepared liposome ([lipid]=10 mg/ml) were respectively added to acetate buffers with different pHs (7.4, 7, 6, 5, 4) (30 mM) to the final concentration of [lipid]=1 mg/mL, and then the zeta potential at 37° C. was measured. Zetasizer 4 manufactured by Malvern was used. A capillary cell was filled with a liposome-dispersed liquid obtained by dilution to the measurement concentration, and the measurement was performed at 37° C. 3 times.
Portions of the prepared liposome ([lipid]=10 mg/ml) were respectively added to acetate buffers with different pHs (7.4, 7, 6, 5, 4) (20 mM) to the final concentration of [lipid]=1 mg/mL, and then the zeta potential at 37° C. was measured.
Portions of each of the prepared liposomes ([lipid]=10 mg/ml) were respectively added to acetate buffers with different pHs (7.4, 7, 6, 5, 4) (20 mM) to the final concentration of [lipid]=1 mg/mL, and then the zeta potential at 37° C. was measured.

[2] = Preparation of liposome from mixed lipid (dispersion in water, high-pressure extrusion); type: physicochemical; details: mixed lipid compound/cholesterol/PEG-Glu2C18 dispersed in water, high-pressure extrusion 0.22 μm
Method: (§1) Compound 7, 8 or 9 (0.177 mmol), cholesterol (0.179 mmol) and PEG-Glu2C18 (1.0 μmol) were dissolved in benzene, and the mixture was freeze-dried to prepare a mixed lipid. 20 mg of this mixed lipid was dispersed in 1 mL of water for injection, and the resultant mixture was stirred for 6 hours. After that, liposome having a particle size of about 240 nm was prepared by means of the high-pressure extrusion method (final pore diameter: 0.22 μm).
as §1, with “Compound 3, 12” for “Compound 7, 8”, “or 13” for “or 9”, “(1.0 mmol)” for “(1.0 μmol)”

[3] = Concentration of Compound 3 in rat plasma after i.v. liposome (LC/MS/MS); type: in vivo, SD rat; details: male, Sprague-Dawley, iv, 40 mg/kg; for AUC / Cmax / half-life / concentration at 5 min / concentration at 1 h / concentration at 2 h / concentration at 6 h / concentration at 24 h: rat, plasma; for concentration at 5 min / concentration at 1 h / concentration at 2 h / concentration at 6 h / concentration at 24 h: SD rat, i.v. BSA-encapsulated pH-responsive liposome ([Lipid]=20 mg/mL, 2 ml/kg), read-out: GGLG concentration in plasma
Method: A pH-responsive liposome was prepared from mixed lipid (Compound (3)/cholesterol/PEG-Glu2C18=5/5/0.03 (mol)) using the high-pressure extrusion method. In the preparation, the particle size of the liposome was adjusted to 200 to 250 nm. Further, BSA was encapsulated in the internal aqueous phase. The prepared pH-responsive liposome ([Lipid]=20 mg/mL) was intravenously administered to a SD rat (male, body weight of 300 g or less) via the tail vein in an amount of 2 ml/kg under ether anesthesia. The number of rats used was N=3. Prior to the administration and 5 minutes, 1, 2, 6 and 24 hours after the administration, blood was collected (about 500 μL). The obtained blood was subjected to centrifugation (2,000×g, 20 minutes) to obtain plasma (liposome-suspended plasma), and this was preserved at −80° C. Further, after blood was collected 24 hours after the administration, the liver, spleen, lung and kidney were isolated, the wet weight thereof was measured, and these materials were preserved at −80° C. After that, homogenization was carried out using a saline in an amount 4 times greater than the wet weight of the organs.
A material in which the procedure is carried out until 100 μL of methanol is added to 10 μL of homogenate solution of plasma and the organs was used as a sample for measurement of specimen.
To the above-described sample for measurement, a solution to which an internal standard material (1,5-dihexadecyl N-glutamyl-L-glutamate (αGlu-Glu2C16)) was added (900 μL) was added, and the mixture was subjected to vortex stirring. After that, the mixture was allowed to stand at room temperature for at least 10 minutes. After that, the mixture was subjected to vortex stirring again and centrifuged at 4° C. at 10,000×g for 15 minutes. The obtained supernatant was transferred to an LC vial.
As a column, CAPLCELLPAK C18 MG (Shiseido Co., Ltd.) (3 μm, 2.0×50 mm) was used, and the column temperature was set at 40° C. Gradient elution was carried out using 0.1% acetic acid aqueous solution (A)-0.1% methanol acetate (B). The flow rate was 0.25 mL/min. The temperature of the autoinjector was set at 15° C. Regarding a needle washing solution, chloroform/methanol (1:1) was used for a washing pump, and methanol was used for a washing port.
The eluent that was separated by HPLC was subjected to positive ESI ionization and measured in the MRM mode.
An analyte for producing a calibration curve for measurement of plasma was measured, and a calibration curve of 1-300 μg/mL of plasma was prepared with weighting of 1/x^2 and Quadratic. The peak area of the analyte for measurement of plasma/IS peak area was substituted into the obtained formula of the calibration curve to calculate the concentration of Compound 3 in plasma. FIG. 8 is a graph showing the results. In FIG. 8, (-⋄-), (--[…]--) and (--Δ--) show the results of animal 1, animal 2 and animal 3, respectively.

[4] = SD rat plasma, i.v. liposome ([Lipid]=20 mg/mL, 2 ml/kg), animal 1
[5] = SD rat plasma, i.v. liposome ([Lipid]=20 mg/mL, 2 ml/kg), Average
[6] = SD rat plasma, i.v. liposome ([Lipid]=20 mg/mL, 2 ml/kg), animal 2
[7] = SD rat plasma, i.v. liposome ([Lipid]=20 mg/mL, 2 ml/kg), animal 3

CCCCCCCCCCCCCCCCOC(=O)CCC(NC(=O)C(CCCCNC(=O)C(N)CCC(=O)O)NC(=O)C(N)CCC(=O)O)C(=O)OCCCCCCCCCCCCCCCC (centres unmarked) [Compound 3]
zeta potential of the liposome ([1]; liposome Compound 3/cholesterol/PEG-Glu2C18 (5/5/0.03), pH 7.4): negative | zeta potential as pH was decreased ([1]; liposome Compound 3/cholesterol/PEG-Glu2C18 (5/5/0.03 molar ratio), acetate buffers pH 7.4-4 (30 mM)): changed from negative to positive | pH at which the zeta potential changed from negative to positive ([1]; liposome compound/cholesterol/PEG-Glu2C18 (5/5/0.03 molar ratio), acetate buffers 20 mM): about 5.7 | liposome formation with the compound as main component [2]: liposome was formed | Tmax [3, 4]: 4.98 min | AUC [3, 5]: 309 µg·h/mL | Cmax [3, 5]: 132 µg/mL | half-life ([3]; SD rat plasma, i.v. liposome ([Lipid]=20 mg/mL, 2 ml/kg), Average, read-out: t½ (converted)): 4.84 h | AUC [3, 4]: 266 µg·h/mL | Cmax [3, 4]: 105 µg/mL | half-life ([3]; SD rat plasma, i.v. liposome ([Lipid]=20 mg/mL, 2 ml/kg), animal 1, read-out: t½ (converted)): 5.03 h | AUC [3, 6]: 364 µg·h/mL | Cmax [3, 6]: 153 µg/mL | half-life ([3]; SD rat plasma, i.v. liposome ([Lipid]=20 mg/mL, 2 ml/kg), animal 2, read-out: t½ (converted)): 4.31 h | AUC [3, 7]: 297 µg·h/mL | Cmax [3, 7]: 136 µg/mL | half-life ([3]; SD rat plasma, i.v. liposome ([Lipid]=20 mg/mL, 2 ml/kg), animal 3, read-out: t½ (converted)): 5.18 h | concentration at 5 min ([3]; Average value (N=3)): 132 µg/mL | concentration at 5 min ([3]; animal 1): 105 µg/mL | concentration at 5 min ([3]; animal 2): 153 µg/mL | concentration at 5 min ([3]; animal 3): 136 µg/mL | concentration at 1 h ([3]; Average value (N=3)): 53.6 µg/mL | concentration at 1 h ([3]; animal 1): 44.7 µg/mL | concentration at 1 h ([3]; animal 2): 62.4 µg/mL | concentration at 1 h ([3]; animal 3): 53.5 µg/mL | concentration at 2 h ([3]; Average value (N=3)): 31.2 µg/mL | concentration at 2 h ([3]; animal 1): 25.8 µg/mL | concentration at 2 h ([3]; animal 2): 39.3 µg/mL | concentration at 2 h ([3]; animal 3): 28.5 µg/mL | concentration at 6 h ([3]; Average value (N=3)): 8.9 µg/mL | concentration at 6 h ([3]; animal 1): 8.39 µg/mL | concentration at 6 h ([3]; animal 2): 10.2 µg/mL | concentration at 6 h ([3]; animal 3): 8.12 µg/mL | concentration at 24 h ([3]; Average value (N=3)): 1.13 µg/mL | concentration at 24 h ([3]; animal 1): 1.02 µg/mL | concentration at 24 h ([3]; animal 2): 1.2 µg/mL | concentration at 24 h ([3]; animal 3): 1.17 µg/mL | half-life ([3]; from concentration in rat plasma, i.v. pH-responsive liposome, read-out: half-life of Compound 3 (converted)): 4.8 h
